Source: patent EP0410366A2, “Anthracycline derivatives” (BEHRINGWERKE Aktiengesellschaft, priority 1989, dated 1991)
In brackets after ≈: the same amount, converted by molar mass. Where two headings read alike, the source gives them in different places.

Tests used:
[1] = system: L 1210; experiment: Proliferation test (MTT reduction), L 1210; assay type: cell-based, Maus; conditions: Mus musculus, read-out: IC₅₀ MTT L1210
Method: (§1) L 1210, A 549 oder HT 29 in exponentieller Wachstumsphase werden in einer Zelldichte von 5 x 10³ Zellen/ml in RPMI 1640 in einer 96 Well Mikrotiterplatte für 72 h mit unterschiedlichen Konzentrationen der Testsubstanz bei 37° C, 5 % CO₂ und 95 % relativer Luftfeuchte inkubiert. Kontrollexperimente erhalten anstelle der Testsubstanz lediglich Wachstumsmedium. Für jede Testsubstanz sowie für die Kontrolle werden 4fach Bestimmungen angesetzt. Nach 65 h Inkubation werden 50 µl einer MTT-Lösung (2.5 mg/ml in Phosphat-gepuffertem Kochsalz) zugegeben. In Gegenwart lebender Zellen wird MTT zu einem dunkelroten unlöslichen Formazanfarbstoff reduziert. Diese Reaktion ist nach 7 h (L 1210 Zellen) bzw. nach 24 h (A 549, HT 29 Zellen) beendet, und das überstehende Medium wird sorgfältig abgesaugt. Der unlösliche Farbstoff wird durch Zugabe von 100 µl DMSO aufgelöst und die Extinktion der so entstehenden Lösung anschließend für jedes Well in einem Multiscan Photometer 340 CC der Fa. Flow bei einer Wellenlänge von 492 nm vermessen.
(§2) Aus dem Verhältnis der Extinktionen behandelter und unbehandelter Zellen ergibt sich eine Dosis-Wirkungskurve, aus der die Konzentration, die gerade 50 % der Zellen (IC₅₀) abtötet, abgelesen werden kann. Für wiederholte Untersuchungen beträgt der Variationskoeffizient weniger als 15 % (Tabelle 1). Tabelle 1

[2] = system: L 1210 Leukämiezellen; experiment: Cytotoxicity against L 1210 leukemia cells (stem cell assay, SCA; colony formation in soft agar); assay type: cell-based, Maus; conditions: Mus musculus
Method: Der Test wurde entsprechend der von Hamburger und Salmon beschriebenen Methodik mit den unten beschriebenen Modifikationen durchgeführt.
Konditioniertes Medium wurde durch McCoy 5A Medium ersetzt. Als Folge der hohen Klonierungsrate der L 1210 Leukämiezellen in Soft Agar wurde die Anzahl an Tumorzellen pro Platte auf 5 x 10² reduziert.
Die Zellen wurden mit unterschiedlichen Konzentrationen der Testsubstanz für 1 h bei 37° C inkubiert. Anschließend wurden die Zellen zweimal mit McCoy 5A Medium gewaschen und anschließend in einem Zwei-Schichten-Agar System als obere Schicht entsprechend der Methode von Hamburger und Salmon ausplatiert.
Zusätzliche Parallelexperimente wurden unter Verwendung einer kontinuierlichen Inkubationszeit durchgeführt, wobei unterschiedliche Konzentrationen der Testsubstanz der oberen Agarschicht vor Ausplatieren der Zellen zugemischt wurden.
Die Platten wurden in einem Brutschrank mit 5 % CO₂, 20 % 02 und 95 % relativer Luftfeuchte für 5-7 Tage inkubiert. Nach dieser Zeit wurden Kolonien mit einem Durchmesser von 60 µm mit Hilfe eines Invertoskopes gezählt.
Die Ergebnisse wurden angegeben als prozentualer Anteil der Kolonien in behandelten versus unbehandelten Gruppen. Der Variationskoeffizient bei wiederholten Experimenten war kleiner als 15 %.
Aus der Dosis-Wirkungskurve wurde die IC₅₀ für die kontinuierliche und einstündige Inkubation bestimmt (Tab. 1).

[3] = system: A 549; experiment: Proliferation test (MTT reduction), A 549; assay type: cell-based; conditions: Homo sapiens, read-out: IC₅₀ MTT A 549
Method: as §1, §2

[4] = system: HT 29; experiment: Proliferation test (MTT reduction), HT 29; assay type: cell-based; conditions: Homo sapiens, read-out: IC₅₀ MTT HT 29
Method: as §1, §2

[5] = system: L 1210 Leukämie; assay type: in vivo; conditions: for opt. Dosis: dose with the largest antitumoral effect
Method: Methodik: Ascitesflüssigkeit wird unter sterilen Bedingungen DBA2 Mäusen (weiblich, 18-20 g) 7 Tage nach Implantation entnommen. Der Ascites wird dreimal mit PBS gewaschen, gezählt und auf eine Zellzahl von 10⁴ in 0.2 ml PBS eingestellt.
10⁴ Zellen, suspendiert in 0.2 ml PBS, werden anschließend DBF1 Mäusen (weiblich, 18-20 g) intravenös injiziert. 6 Tiere pro Gruppe werden für jede Substanzkonzentration bzw. als Kontrolle eingesetzt.
• a) Die Tiere werden am Tag 1 und 5 nach Injektion der Testsubstanz gewogen. Gewichtsverlust von mehr als 20 % am Tag 5 wird als Indikator einer toxischen Substanzwirkung angesehen. • b) Am Ende des Experimentes (Tod aller Tiere oder überlebende Tiere am Tag 60) wird die mittlere Überlebenszeit der Tiere in den jeweiligen Gruppen bestimmt, sofern am Tag 5 des Experimentes mindestens 65 % der Tiere noch gelebt hatten. Die mittlere Überlebenszeit wird ausschließlich für im Verlaufe des Experimentes sterbende Tiere bestimmt. Langzeit-überlebende (LTS) werden bei dieser Berechnung nicht berücksichtigt und gesondert aufgeführt.
Aus der mittleren Überlebenszeit (MSTt) der behandelten Gruppen sowie der Kontrollgruppen (MSTc) wird die antitumorale Wirksamkeit (T/C) für die jeweilige Substanzkonzentration in Prozent der unbehandelten Kontrolle entsprechend der folgenden Formel bestimmt: [formula]
T/C Werte größer als 125 % werden als Indikator einer signifikanten antitumoralen Wirksamkeit der Testsubstanz angesehen. Die Dosis, die den größten antitumoralen Effekt (optimale Dosierung) zeigte, wurde ermittelt. Tiere, die am Tag 60 des Experimentes noch leben, werden als Longterm-Survivors getrennt aufgeführt. Tabelle 2

[6] = L1210, read-out: IC₅₀ SCA L 1210 1 h
[7] = L 1210 iv, treatment iv, Q3D (Verbind. 1: 2x, Pirarubicin: 3x)

Compound	IC50 ([1]; L1210, 72 h) [µg/mL]	IC50 [2, 6] [µg/mL]	IC50 ([3]; A549, 72 h) [µg/mL]	IC50 ([4]; HT-29, 72 h) [µg/mL]	opt. Dosis [5, 7] [mg/kg/inj]	also measured
COc1cc(OC)cc(C(C)(C)OC(=O)N[C@H]2C[C@H](O[C@H]3C[C@](O)(C(=O)CO)Cc4c(O)c5c(c(O)c43)C(=O)c3c(OC)cccc3C5=O)O[C@@H](C)[C@H]2O)c1 [Verbindung 2, 7-O-(3-(3 ,5′-Dimethoxy-α,α-dimethyl-benzyloxycarbonylamino)-2,3,6-tridesoxy-alpha-L-lyxohexopyranosyl)-adriamycinon]	0.11 (≈ 0.144 µM)	6.4 (≈ 8.36 µM)	0.11 (≈ 0.144 µM)	0.13 (≈ 0.17 µM)	–	–
COc1cc(OC)cc(C(C)(C)OC(=O)N[C@H]2C[C@H](O[C@H]3C[C@](O)(C(C)=O)Cc4c(O)c5c(c(O)c43)C(=O)c3c(OC)cccc3C5=O)O[C@@H](C)[C@H]2O)c1 [Verbindung 4, 7-O-(3-(3 ,5′-Dimethoxy-α,α-dimethyl-benzyloxycarbonylamino)-2,3,6-tridesoxy-alpha-L-lyxohexopyranosyl)-daunomycinon]	0.14 (≈ 0.187 µM)	4.5 (≈ 6 µM)	0.13 (≈ 0.173 µM)	0.13 (≈ 0.173 µM)	–	–
COc1cc(OC)cc(C(C)(C)OC(=O)N[C@H]2C[C@H](O[C@H]3C[C@](O)(C(=O)CO)Cc4c(O)c5c(c(O)c43)C(=O)c3c(OC)cccc3C5=O)O[C@@H](C)[C@@H]2O)c1 [Verbindung 3, 7-O-(3-(3 ,5′-Dimethoxy-α,α-dimethyl-benzyloxycarbonylamino)-2,3,6-tridesoxy-alpha-L-arabinohexopyranosyl)-adriamycinon]	0.02 (≈ 0.0261 µM)	–	0.04 (≈ 0.0522 µM)	0.11 (≈ 0.144 µM)	–	–
CC[C@@]1(O)C[C@H](O[C@H]2C[C@H](NC(=O)OC(C)(C)c3cc(OC)cc(OC)c3)[C@H](O)[C@H](C)O2)c2c(O)c3c(c(O)c2[C@H]1O)C(=O)c1cccc(O)c1C3=O [Verbindung 8, 7-O-(3-(3,5-Dimethoxy-alpha,alpha-dimethyl-benzyloxycarbonylamino)-2,3,6-tridesoxy-alpha-L-lyxohexopyranosyl)-β-rhodomycinon]	0.004 (≈ 0.00542 µM)	0.47 (≈ 0.637 µM)	< 0.004	< 0.004	–	–
COc1cccc2c1C(=O)c1c(O)c3c(c(O)c1C2=O)C[C@@](O)(C(=O)CO)C[C@@H]3O[C@H]1C[C@H](N)[C@H](O[C@@H]2CCCCO2)[C@H](C)O1 [Pirarubicin, 4′-O-THP-Doxorubicin, reference compound]	–	–	–	–	4.7	IC50 ([1]; L1210, 72 h incubation): 0.004 µg/mL (≈ 0.00637 µM); IC50 ([2]; L1210, 1 h incubation at 37° C, colonies counted after 5-7 days, read-out: IC₅₀ SCA L 1210 1 h): 0.01 µg/mL (≈ 0.0159 µM); IC50 ([2]; L1210, continuous incubation, colonies counted after 5-7 days, read-out: IC₅₀ SCA L 1210 cont): 0.004 µg/mL (≈ 0.00637 µM); Effektivität T/C % ([5]; iv): 178%; IC50 ([3]; A549, 72 h incubation): 0.15 µg/mL (≈ 0.239 µM); IC50 ([4]; HT-29, 72 h incubation): 0.016 µg/mL (≈ 0.0255 µM)
COc1cc(OC)cc(C(C)(C)OC(=O)N[C@H]2C[C@H](O[C@H]3C[C@](O)(C(=O)CO)Cc4c(O)c5c(c(O)c43)C(=O)c3c(OC)cccc3C5=O)O[C@@H](C)[C@H]2OC2CCCCO2)c1 (stereo partly drawn) [Verbindung 1, 7-O-(3-(3 ,5′-Dimethoxy-α,α-dimethyl-benzyloxycarbonylamino)-4-O-tetrahydropyranyl-2,3,6-tridesoxy-alpha-L-lyxohexopyranosyl)-adriamycinon]	0.027 (≈ 0.0318 µM)	5.3 (≈ 6.24 µM)	0.023 (≈ 0.0271 µM)	0.04 (≈ 0.0471 µM)	20	zytostatische Wirksamkeit ([5]; "in vivo" L 1210-Testmodell, compared with Doxorubicin or Tetrahydropyranyl-Doxorubicin): erheblich bessere; Effektivität toxisch ([5]; animals per group with toxic effect, at optimal dose): 1/6; Effektivität T/C % ([5]; at optimal dose, mean survival time treated vs control, L 1210 iv, treatment iv, Q3D (Verbind. 1: 2x, Pirarubicin: 3x)): 435%; Effektivität LTS ([5]; long-term survivors at day 60, animals per group, at optimal dose): 5/6
